Counter-ions that a name gives are not always drawn.
Key:
[1] = Caco-2 bidirectional assay, effect of piperine on permeability of darunavir; type: in vitro ADME; conditions: human, Caco-2, pH 7.4
Method: (§1) Cells were treated with drugs as follows:
(§2) The sample were analyzed on LCMS-MS.

[2] = Caco-2 bidirectional assay, effect of piperine on permeability of dolutegravir; conditions: human, Caco-2, pH 7.4
Method: as §1
(§3) The samples were analyzed on LCMS-MS.

[3] = Caco-2 bidirectional assay, effect of piperine and tetrahydropiperine on permeability of TDF; conditions: human, Caco-2, pH 7.4
Method: Caco-2 cells were cultured in MEM media with 10% serum and seeded at a density of 75000 cells per mL and cultured for 21 days in a 24-well trans-well plate at 37° C., 5% CO2. The monolayer integrity was checked intermittently (Day 0-21) using Trans Epithelial Electric Resistance (TEER). Cells were treated with drugs as follows:
(§5) 400 μL samples were added to the wells as per the plate setup to the apical side in duplicates with 800 μL HBSS pH 7.4 in the basal wells. Samples were collected at 60, 90 and 120 minutes from the basal side. Mass balance samples at 0 and 120 minutes were collected from the apical side.
For B-A, 800 μL of the respective dilutions were added to the basal side in duplicates with 400 μL HBSS pH 7.4 in the apical wells. Samples were collected at 60, 90 and 120 minutes from the apical side. Mass balance samples at 0 and 120 minutes were collected from the basal side.
The sample were analyzed on LCMS-MS. At the end of the experiment the monolayer integrity was checked using and Lucifer yellow, calculating the % rejection of Lucifer yellow by incubating cells with 100 μg/mL Lucifer.
(§6) For Lucifer yellow, % Lucifer Yellow Passage=[RFU (test)−RFU (blank)/RFU (equilibrium)−RFU (blank)]*100

in vitro = conditions: human, Caco-2, pH 7.4
Method: Caco-2 cells were cultured in MEM media with 10% serum and seeded at a density of 75000 cells per mL and cultured for 21 days in a 24-well trans-well plate at 37° C., 5% CO2. The monolayer integrity was checked intermittently (Day 0-21) using Trans Epithelial Electric Resistance (TEER).
as §5
For B-A, 800 μL of the respective dilutions were added to the basal side in duplicates with 400 μL HBSS pH 7.4 in the apical wells. Samples were collected at 60, 90 and 120 minutes from the apical side. Mass balance samples at 0 and 120 minutes were collected from the basal side. The sample were analyzed on LCMS-MS.
At the end of the experiment the monolayer integrity was checked using Lucifer yellow, and calculating the % rejection of Lucifer yellow by incubating cells with 100 μg/mL Lucifer.
as §6

Caco-2 cells [4] = assay: Caco-2 bidirectional assay, effect of piperine on permeability of dolutegravir; conditions: in words
Method: as §1, §3

Caco-2 cells [5] = assay: Caco-2 unidirectional assay (A-B), permeability
Method: as §1
(§4) Stock preparations: 10 mM stocks of all the drugs were prepared in DMSO. The test concentrations were further prepared in HBSS buffer containing 10 mM MES hydrate pH 6.8 as per the plate plan. Also, HBSS buffer with 10 mM HEPES with pH 7.4 was prepared.
as §2

[6] = Caco-2 unidirectional assay (A-B), permeability; conditions: human, Caco-2
Method: as §1, §4, §2

P-gp = P-gp (Homo sapiens, UniProt P08183); assay: in vitro; type: cell-based; conditions: pH 7.4, drug alone (Digoxine 10 μM; TAF 100 μM)
Method: as §1, §2

[7] = male, Wistar, rat, in vivo, 300 mg
Method: The objective of this non-GLP study was to determine the pharmacokinetics of the TDF alone and in combinations with piperine in different groups of male Wistar rats after single dose intravenous administration and oral administration. This study was performed with approval from the Institutional Animal Ethics Committee (IAEC) in accordance with the requirement of Committee for the Purpose of Control and Supervision of Experiments on Animals (CPCSEA), India.
An equal volume (4.72 mL) of each formulation was mixed in separate vials to get 5 mL/kg.
An equal volume (5.61 mL) of each formulation was mixed in separate vials to get 5 mL/kg.
Bioanalysis was performed using fit-for-purpose LC-MS/MS method for the quantification of TDF and PMPA in rat plasma samples. […]
Plasma pharmacokinetic parameters were calculated using the non-compartmental analysis tool of Phoenix software (Version 6.3) and were determined from individual animals in each group. The peak plasma concentration (Cmax), time to achieve peak plasma concentration (Tmax), the area under the plasma concentration-time curve (AUC0-t and AUCinf), AUC Extra (%), elimination half-life (T½), clearance (CL), volume of distribution Vd (L/kg) and Mean residence time (MRT) were calculated from the intravenous group. […]

Sequence of P-gp (P08183 whole entry): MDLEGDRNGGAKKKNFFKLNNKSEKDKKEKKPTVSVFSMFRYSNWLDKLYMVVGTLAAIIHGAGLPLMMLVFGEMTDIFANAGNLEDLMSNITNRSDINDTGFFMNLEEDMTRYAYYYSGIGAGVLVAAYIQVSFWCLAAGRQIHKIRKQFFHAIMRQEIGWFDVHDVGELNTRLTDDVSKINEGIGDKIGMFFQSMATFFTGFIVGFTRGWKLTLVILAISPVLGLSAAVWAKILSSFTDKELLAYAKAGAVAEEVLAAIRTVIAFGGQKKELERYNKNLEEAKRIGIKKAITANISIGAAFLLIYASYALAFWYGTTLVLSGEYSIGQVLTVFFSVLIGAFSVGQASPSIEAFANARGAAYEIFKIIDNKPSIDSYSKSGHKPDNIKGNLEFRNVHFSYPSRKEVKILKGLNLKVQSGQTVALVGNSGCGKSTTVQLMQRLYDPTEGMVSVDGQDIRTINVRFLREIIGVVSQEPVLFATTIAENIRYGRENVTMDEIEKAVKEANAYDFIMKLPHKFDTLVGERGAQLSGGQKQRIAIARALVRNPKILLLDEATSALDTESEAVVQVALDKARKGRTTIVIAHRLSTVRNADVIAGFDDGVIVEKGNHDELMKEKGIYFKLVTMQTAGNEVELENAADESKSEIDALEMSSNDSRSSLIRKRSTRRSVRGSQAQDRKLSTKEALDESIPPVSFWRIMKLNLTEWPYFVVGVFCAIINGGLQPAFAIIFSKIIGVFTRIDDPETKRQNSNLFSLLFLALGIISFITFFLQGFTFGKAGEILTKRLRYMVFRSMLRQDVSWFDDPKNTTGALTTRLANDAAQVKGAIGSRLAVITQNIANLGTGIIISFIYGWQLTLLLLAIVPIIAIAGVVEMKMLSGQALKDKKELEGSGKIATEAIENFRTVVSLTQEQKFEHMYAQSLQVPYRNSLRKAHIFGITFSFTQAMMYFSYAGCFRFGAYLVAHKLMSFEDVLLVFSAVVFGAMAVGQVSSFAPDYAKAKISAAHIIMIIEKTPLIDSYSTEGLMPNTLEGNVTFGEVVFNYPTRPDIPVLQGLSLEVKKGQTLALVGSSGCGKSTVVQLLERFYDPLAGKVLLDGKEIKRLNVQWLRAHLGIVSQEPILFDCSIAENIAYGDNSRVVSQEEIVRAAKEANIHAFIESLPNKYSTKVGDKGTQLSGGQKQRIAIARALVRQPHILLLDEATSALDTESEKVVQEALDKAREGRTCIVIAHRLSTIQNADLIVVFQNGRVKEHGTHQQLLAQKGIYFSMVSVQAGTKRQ

| Structure (SMILES) | Papp A→B at 120 min [1] [×10⁻⁶ cm/s] | Papp B→A at 120 min [1] [×10⁻⁶ cm/s] | Papp A→B at 120 min [2] [×10⁻⁶ cm/s] | Papp B→A at 120 min [2] [×10⁻⁶ cm/s] | Papp A→B at 120 min [3] [×10⁻⁶ cm/s] | Papp B→A at 120 min [3] [×10⁻⁶ cm/s] | Papp A→B at 120 min, 50 μM [6] [×10⁻⁶ cm/s] | Papp A→B at 120 min, 100 μM [6] [×10⁻⁶ cm/s] | further results |
| --- | --- | --- | --- | --- | --- | --- | --- | --- | --- |
| CC(C)CN(C[C@@H](O)[C@H](Cc1ccccc1)NC(=O)O[C@H]1CO[C@H]2OCC[C@H]21)S(=O)(=O)c1ccc(N)cc1 [Darunavir] | 8.83 | 21.7 |  |  |  |  |  |  |  |
| C[C@H]1O[C@@H](O[C@H]2[C@@H](O)C[C@H](O[C@H]3[C@@H](O)C[C@H](O[C@H]4CC[C@@]5(C)[C@H](CC[C@@H]6[C@@H]5C[C@@H](O)[C@]5(C)[C@@H](C7=CC(=O)OC7)CC[C@]65O)C4)O[C@@H]3C)O[C@@H]2C)C[C@H](O)[C@@H]1O [Digoxin] | 1.12 | 14.2 | 4.5 | 28.9 | 0.816 | 15.5 |  |  | Papp A→B (in vitro): 1.94 ×10⁻⁶ cm/s; Papp B→A (in vitro): 20.5 ×10⁻⁶ cm/s |
| C[C@@H]1CCO[C@H]2Cn3cc(C(=O)NCc4ccc(F)cc4F)c(=O)c(O)c3C(=O)N12 [Dolutegravir] |  |  | 40.2 | 84.3 |  |  |  |  | Permeability classification (Caco-2 cells [4]): high permeable |
| CC(C)OC(=O)[C@H](C)N[P@](=O)(CO[C@H](C)Cn1cnc2c(N)ncnc21)Oc1ccccc1 [TAF, tenofovir alafenamide fumarate] |  |  |  |  |  |  | 5.86 | 5.39 | Permeability classification (Caco-2 cells [5]; in words): low to moderately permeable; inhibition at 120 min, 100 μM (P-gp): 0%; Papp A→B at 120 min (in vitro): 3.45 ×10⁻⁶ cm/s; Papp B→A at 120 min (in vitro): 17.8 ×10⁻⁶ cm/s |
| CC(C)OC(=O)OCOP(=O)(CO[C@H](C)Cn1cnc2c(N)ncnc21)OCOC(=O)OC(C)C [TDF, tenofovir disoproxil fumarate] |  |  |  |  | 2.55 | 15.2 | 6.58 | 6.35 | Permeability classification (Caco-2 cells [5]; Caco-2): low to moderately permeable; Bioavailability [7]: 34.39±6.07; Papp A→B at 120 min, 200 μM [3]: 3.77 ×10⁻⁶ cm/s; Papp B→A at 120 min, 200 μM [3]: 14.3 ×10⁻⁶ cm/s; efflux ratio at 120 min, 200 μM [3]: 3.79 |

— US11612612B2, “Pharmaceutical compositions” (CIPLA LIMITED, priority 2016, dated 2023)
